In patent US10870638B2, “Pyridazinone compound or its salt, and herbicide containing it” (ISHIHARA SANGYO KAISHA, LTD., priority 2016, dated 2020):

Experiments:
Type in all cases: in vivo
Conditions in all cases: 14th day after application
[1] = tested on: barnyardgrass (Echinochloa crus-qalli L.); test: Test Example 2: soil application on the day after sowing, growth inhibition rate on 14th day
Method in brief: (§1)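 Upland soil pots; sowing, then next-day soil spraying of compound formulations (1,000 L/ha water) at defined a.i. doses. Day-14 visual rating of inhibition on a 0–100 scale, where 100 means complete kill.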

[2] = tested on: prickly sida (Sida spinosa L.); test: as above
Method in brief: as §1

[3] = tested on: wheat (Triticum aestivum L.); test: as above
Method in brief: as §1

[4] = tested on: soybean (Glycine max Merr.); test: as above
Method in brief: as §1

rice (Oryza sativa L.) [5] = test: as above
Method in brief: as §1

[6] = tested on: green foxtail (Setaria viridis L.); test: as above
Method in brief: as §1

[7] = tested on: crabgrass (Digitaris sanquinalis L.); test: as above
Method in brief: as §1

[8] = tested on: velvetleaf (Abutilon theophrasti MEDIC.); test: as above
Method in brief: as §1

corn (Zea mays L.) [9] = test: as above
Method in brief: as §1

[10] = tested on: redroot pigweed (Amaranthus retroflexus L.); test: as above
Method in brief: as §1

[11] = tested on: barnyardgrass (Echinochloa crus-qalli L.); test: Test Example 1: foliar treatment, growth inhibition rate on 14th day
Method in brief: (§2)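 Visual 0–100% inhibition scoring (100 = complete kill) at 14 days after foliar treatment of soil-grown seedlings at species-specific leaf stages, with the compound sprayed as a wettable powder or emulsifiable concentrate dilution.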

[12] = tested on: crabgrass (Digitaria sanquinalis L.); test: as above
Method in brief: as §2

[13] = tested on: italian ryegrass (Lolium multiflorum Lam.); test: as above
Method in brief: as §2

[14] = tested on: wheat (Triticum aestivum L.); test: as above
Method in brief: as §2

[15] = tested on: soybean (Glycine max Merr.); test: as above
Method in brief: as §2

rice (Oryza sativa L.) [16] = test: as above
Method in brief: as §2

[17] = tested on: green foxtail (Setaria viridis L.); test: as above
Method in brief: as §2

[18] = tested on: wild oat (Avena fatua L.); test: as above
Method in brief: as §2

corn (Zea mays L.) [19] = test: as above
Method in brief: as §2

[20] = tested on: redroot pigweed (Amaranthus retroflexus L.); test: as above
Method in brief: as §2

[21] = active ingredient amount 500 g/ha
[22] = active ingredient amount 31 g/ha
[23] = active ingredient amount 31 g/ha, visual, 0 = non-treated, 100 = complete kill

SMILES | Growth inhibition rate (%) Barnyardgrass [1, 22] [%] | Growth inhibition rate (%) Prickly sida [2, 22] [%] | Growth inhibition rate (%) Wheat [3, 22] [%] | Growth inhibition rate (%) Soybean [4, 22] [%] | Growth inhibition rate (%) Rice (rice (Oryza sativa L.) [5]; [22]) [%] | Growth inhibition rate (%) Green foxtail [6, 22] [%] | Growth inhibition rate (%) Crabgrass [7, 22] [%] | Growth inhibition rate (%) Velvetleaf [8, 22] [%] | Growth inhibition rate (%) Corn (corn (Zea mays L.) [9]; [22]) [%] | Growth inhibition rate (%) Redroot pigweed [10, 22] [%] | Growth inhibition rate (%) Barnyardgrass [11, 22] [%] | Growth inhibition rate (%) Crabgrass [12, 22] [%] | Growth inhibition rate (%) Italian ryegrass [13, 22] [%] | Growth inhibition rate (%) Wheat [14, 22] [%] | Growth inhibition rate (%) Soybean [15, 22] [%] | Growth inhibition rate (%) Rice (rice (Oryza sativa L.) [16]; [22]) [%] | Growth inhibition rate (%) Green foxtail [17, 22] [%] | Growth inhibition rate (%) Wild oat [18, 22] [%] | Growth inhibition rate (%) Corn (corn (Zea mays L.) [19]; [22]) [%] | Growth inhibition rate (%) Redroot pigweed [20, 22] [%] | also measured
CC(=O)Oc1c(C)nn(C)c(=O)c1-c1cc(Oc2ccc3ccccc3n2)ccc1C [Compound 2-142] |  |  |  |  |  |  |  |  |  |  |  |  |  |  |  |  |  |  |  |  | Growth inhibition rate (%) Barnyardgrass [1, 21]: 100%; Growth inhibition rate (%) Prickly sida [2, 21]: 0%; Growth inhibition rate (%) Wheat [3, 21]: 0%; Growth inhibition rate (%) Soybean [4, 21]: 0%; Growth inhibition rate (%) Rice (rice (Oryza sativa L.) [5]; [21]): 90%; Growth inhibition rate (%) Green foxtail [6, 21]: 93%; Growth inhibition rate (%) Crabgrass [7, 21]: 98%; Growth inhibition rate (%) Velvetleaf [8, 21]: 0%; Growth inhibition rate (%) Corn (corn (Zea mays L.) [9]; [21]): 0%; Growth inhibition rate (%) Redroot pigweed [10, 21]: 0%; Growth inhibition rate (%) Barnyardgrass [11, 21]: 100%; Growth inhibition rate (%) Crabgrass [12, 21]: 83%; Growth inhibition rate (%) Italian ryegrass [13, 21]: 0%; Growth inhibition rate (%) Wheat [14, 21]: 50%; Growth inhibition rate (%) Soybean [15, 21]: 25%; Growth inhibition rate (%) Rice (rice (Oryza sativa L.) [16]; [21]): 80%; Growth inhibition rate (%) Green foxtail [17, 21]: 90%; Growth inhibition rate (%) Wild oat [18, 21]: 50%; Growth inhibition rate (%) Corn (corn (Zea mays L.) [19]; [21]): 20%; Growth inhibition rate (%) Redroot pigweed [20, 21]: 0%
CC(=O)Oc1c(C)nn(C)c(=O)c1-c1cc(Oc2cnc3cc(Cl)ccc3n2)ccc1C [Compound 3-33] | 100 | 0 | 40 | 0 | 60 | 100 | 99 | 0 | 20 | 0 | 100 | 99 | 98 | 100 | 30 | 93 | 100 | 100 | 10 | 0 | 
CC(=O)Oc1cnn(CC2CC2)c(=O)c1-c1cccc(Oc2ncc(C(F)(F)F)cc2Cl)c1C [1-170] | 75 | 0 | 0 | 0 | 0 | 98 | 93 | 0 | 0 | 0 | 95 | 99 | 30 | 0 | 0 | 40 | 98 | 40 | 99 | 10 | 
CCn1nc(C)c(OC(C)=O)c(-c2cc(Oc3cnc4cc(Cl)ccc4n3)ccc2C)c1=O [Compound 3-97] | 95 | 0 | 20 | 0 | 20 | 99 | 93 | 0 | 0 | 0 |  |  |  |  |  |  |  |  |  |  | Growth inhibition rate (%) Barnyardgrass [11, 23]: 100%; Growth inhibition rate (%) Crabgrass [12, 23]: 100%; Growth inhibition rate (%) Italian ryegrass [13, 23]: 99%; Growth inhibition rate (%) Wheat [14, 23]: 95%; Growth inhibition rate (%) Soybean [15, 23]: 0%; Growth inhibition rate (%) Rice (rice (Oryza sativa L.) [16]; [23]): 75%; Growth inhibition rate (%) Green foxtail [17, 23]: 100%; Growth inhibition rate (%) Wild oat [18, 23]: 100%; Growth inhibition rate (%) Corn (corn (Zea mays L.) [19]; [23]): 15%; Growth inhibition rate (%) Redroot pigweed [20, 23]: 0%
CC(=O)Oc1c(C)nn(C)c(=O)c1-c1cc(Sc2ncc(C(F)(F)F)cc2Cl)ccc1C [1-42] | 100 | 0 | 0 | 0 | 80 | 100 | 100 | 0 | 40 | 0 | 100 | 100 | 100 | 100 | 10 | 88 | 100 | 100 | 100 | 10 | 
Cc1ccc(Oc2ncc(Br)cc2Cl)cc1-c1c(O)c(C)nn(C)c1=O [Compound 2-101] | 78 | 0 | 10 | 0 | 0 | 95 | 93 | 0 | 20 | 0 | 75 | 85 | 50 | 0 | 20 | 0 | 88 | 70 | 80 | 0 | 
COCOc1c(C)nn(C)c(=O)c1-c1cc(Oc2cnc3cc(Cl)ccc3n2)ccc1C [Compound 3-40] | 90 | 0 | 0 | 0 | 10 | 40 | 10 | 0 | 10 | 0 | 99 | 99 | 98 | 98 | 10 | 85 | 99 | 98 | 25 | 0 | 
CCc1nn(C)c(=O)c(-c2cc(Oc3cnc4cc(Cl)ccc4n3)ccc2C)c1O [Compound 3-34] | 99 | 0 | 0 | 0 | 20 | 98 | 65 | 0 | 20 | 0 | 100 | 95 | 99 | 90 | 30 | 90 | 100 | 95 | 15 | 0 | 
CCn1nc(C)c(OC(C)=O)c(-c2cc(Oc3nc4ccc(Cl)cc4o3)ccc2C)c1=O [Compound 2-177] | 90 | 0 | 0 | 0 | 30 | 90 | 98 | 0 | 0 | 0 | 100 | 100 | 98 | 90 | 30 | 65 | 99 | 98 | 83 | 0 | 
